Reference: patent US9790196B2, “Lysine demethylase inhibitors for diseases and disorders associated with Flaviviridae” (Oryzon Genomics, S.A., priority 2010, dated 2017)
Where two headings read alike, the source gives them in different places.

Columns and labels:
PK studies (Cmax) = type: in vivo, mice; conditions: at the MTD study doses
Protocol: (§1) Maximum tolerated dose studies and pharmacokinetics for several LSD1 inhibitors were assessed to determine if the compounds can be administered to mammals safely at doses that are expected to achieve therapeutic effects. In particular, Compound X was given to mice IP at 20 mg/kg, 40 mg/kg and 60 mg/kg daily for 5 days in a MTD study conducted at Leitat.

[1] = Maximum tolerated dose study; type: in vivo; conditions: mice, IP, 20, 40 and 60 mg/kg daily for 5 days
Protocol: as §1

[2] = tested on: HCV RNA replicon in Huh7 ET (luc-ubi-neo/ET) cells; assay: microbe, parasite or virus in culture; type: cell-based
Protocol: Anti-HCV assays were conducted at Southern Research Organization using an HCV RNA replicon with a luciferase reporter.
Southern Research reports that they use cell line Huh7 ET (luc-ubi-neo/ET) containing a HCV RNA replicon with a luciferase (LUC) reporter. […] This composition of the replicon is shown as follows
The HCV RNA replicon ET contains the 5′ NTR (IRES) of HCV (5′) which drives the production of a firefly luciferase (Luc), ubiquitin (Ubiq), and neomycin phosphotransferase (Neo) fusion protein. Ubiquitin cleavage releases the LUC and Neo genes. The EMCV IRES element (E-I) controls the translation of the HCV […] proteins NS3-NS5 and is located between Neo and NS3. The NS3 protein cleaves the HCV polyprotein to release the mature NS3, NS4A, NS4B, NS5A and NS5B proteins that are required for HCV replication. At the 3′ end of the replicon is the authentic 3′ NTR of HCV. The LUC reporter is used as an indirect measure of HCV replication. The activity of the LUC reporter is directly proportional to HCV RNA levels and positive control antiviral compounds behave comparably using either LUC or RNA endpoints.
(§2) The effect of drug added in triplicate at concentrations of from e.g., 0 to 100 uM using half log dilutions on HCV RNA-derived LUC activity and cytotoxicity. Human interferon alpha-2b is included in each run as a positive control compound. Subconfluent cultures of the ET line are plated out into 96-well plates that are dedicated for the analysis of cell numbers (cytotoxicity) or antiviral activity and the next day drugs are added to the appropriate wells. Cells are processed 72 hr later when the cells are still subconfluent. Compound cytotoxicity is assessed as the percent viable cells relative to the untreated cell controls.

in vitro = conditions: human, Cytotoxicity IC50, 72 hr
Protocol: as §2

[3] = tested on: Huh7 ET (luc-ubi-neo/ET) cells; assay: in vitro; conditions: read-out: Cytotoxicity IC50; 72 hr
Protocol: as §2

[4] = tested on: H3K4 methylation in SH-SY5Y cells; assay: Western blot for dimethylated H3K4 in SH-SY5Y cells; type: cell-based
Text: […]. B-actin was used as a loading control.

SMILES | Cmax (PK studies (Cmax)) | tolerability in MTD study [1] | EC50 ([2]; HCV RNA-derived LUC activity, 72 hr, read-out: Antiviral Activity EC50) | EC50 ([2]; Hepatitis C virus, Huh7 ET, 72 h, HCV RNA-derived LUC activity, 72 hr, read-out: Antiviral Activity EC50) | EC50 ([2]; Hepatitis C virus, Huh7 ET, read-out: anti-HCV activity in HCV RNA replication assay) | IC50 (in vitro) | IC50 [3] | potency at increasing global dimethylated H3K4 levels as compared to tranylcypromine [4]
NC1CC1c1ccc(-c2cccc(O)c2)cc1 (centres unmarked) [Compound X] | expected to result in therapeutic levels | tolerated with acceptable toxicity | < 0.32 µM | 0.49 µM | 0.3 to 0.5 µM | 54.8 µM | 50.6 µM | 
NC(=O)CNC1CC1c1ccc(OCc2ccccc2)cc1 (centres unmarked) [Dual-1] |  |  |  |  |  |  |  | ≥ 10 fold
